In assay [1] the test system is protein tyrosine kinase in murine lymphocyte cell lysate (CF). Description: Screening of ATP analogs as kinase substrates in murine lymphocyte lysate (anti-phosphotyrosine immunoblot). The class given is biochemical. Conditions: 100 uM nucleotide triphosphate, 37° C., 5 min. The procedure: Screening of Nucleotide Analogs: To identify compounds that would not be accepted as substrates by any existing cellular kinase (53), a panel of synthetic A*TP analogs were screened in a murine lymphocyte lysate (CF) rich in protein tyrosine kinase (13). The assays were performed using spleenocytes (8-30 week old male and female C57/B6 mice from the Princeton University Animal Facility) which were isolated and washed in RPMI-1640 medium containing 5% Bovine Calf Serum (BCS), 1% Hepes and DNAseI (1 μg/ml). Red cells were lysed at 4° C. by treatment with 17 mM tris ammonium chloride pH 7.2. The cells were hypotonically lysed on ice for 10 min. In 1 mM Hepes pH 7.4, 5 mM MgCl2, leupeptin (10 μg/ml), aprotinin (10 μg/ml) and 100 uM PMSF according to the method of Fukazawa et. al. (51). After vortexing and centrifuigation at 500 xg, the supernatant was collected. Cells were stored at 4° C. for 20 min. To attenuate the basal protein phosphorylation level, after which the buffer was adjusted to 20 mM Hepes pH 7.4, 10 mM MgCl2 and 1 mM NaF. Sodium vanadate (100 uM) was then added to inhibit the activity of phosphotyrosine phosphatases.
Each nucleotide triphosphate was added to a final concentration of 100 uM to 5×10^6 cell equivalents and incubated at 37° C. for 5 min. after which 4X Laemmli gel loading buffer was added to the cell lysate to quench the reaction. Proteins were separated by 12.5% SDS-PAGE and transferred to Protran BA85 (Schleicher-Schuell). The blot was probed with the anti-phosphotyrosine monoclonal antibody 4G10 (Upstate Biotechnology) and the bound antibody was detected via enhanced chemiluminescence (cat. 34080, Pierce) following treatment with HRP- coupled goat-anti-mouse antibody (VWR cat. 7101332) according to the manufacturer's instructions.
The cell lysate used includes the protein tyrosine kinase Src, Fyn, Lck, Lyn, Yes, Fgr, Hck, Zap, Syk, Btk, Blk, and other protein tyrosine kinase present in B and T lymphocytes, macrophages, and follicular dendritic cells (13). Molecular size standards (in kilodaltons) are indicated.
(In general: In western blotting, separated proteins are transferred to a membrane and probed.)

The test system of assay [2] is GST-XD4(V323A, I338A). To be noted: 100 μM analog, 10 μM [γ-32P] ATP.
Assay [3] deals with B cell receptor (BCR) mediated phosphorylation cascade in murine B cells. In words: Murine B Cell Assay (phosphotyrosine blot after anti-IgM stimulation). Further details: dose or concentration left out as unconfirmed. The format is cell-based. Conditions: 30 minutes, anti-IgM cross linked murine B cells. The procedure:
Murine B Cell Assay: Splenic lymphocytes were isolated from 6-20 week old Balb/c or C57/B6 mice. The cells were washed out of the spleen into RPMI media containing 1 mg/mL DNase in and the red blood cells were lysed in 17 mM tris-ammonium chloride, pH 7.2, Approximately 4×10^6 cells were incubated at 37° C. for 30 minutes with […] of 3 g or 2 in 1.1% DMSO. B cell stimulation was initiated by the addition of 2 mg of goat anti-mouse IgM (Jackson Immuno Research, cat# 115-005-075) and subsequent incubation for 5 minutes at 37(C. The cells were isolated by centrifugation (13,000 rpm, 2 min) and lysed (lysis buffer: 1% Triton X-100, 50 mM tris pH 7.4, 2 mM EDTA, 150 mM NaCl, […] PMSF, 2 mM sodium orthovanadate, 10 mg/mL leupeptin, 10 mg/mL apoprotin). The cellular debris was then pelleted at 13,000 rpm for 15 min. Cellular proteins were separated by 10% polyacrylamide gel electrophoresis and transferred to a nitrocellulose membrane by Western blotting. Phosphotyrosine containing proteins were visualized by immunoblotting with anti-phosphotyrosine antibody (Upstate Biotechnology, Inc.).

Assay [4] deals with T1, WT Fyn (Homo sapiens, UniProt P06241).
T1 construct: GST (N); made in house; host or cells: E. coli DH5a, pGEX-KT
T1 sequence (P06241 1-534 isoform P06241-2): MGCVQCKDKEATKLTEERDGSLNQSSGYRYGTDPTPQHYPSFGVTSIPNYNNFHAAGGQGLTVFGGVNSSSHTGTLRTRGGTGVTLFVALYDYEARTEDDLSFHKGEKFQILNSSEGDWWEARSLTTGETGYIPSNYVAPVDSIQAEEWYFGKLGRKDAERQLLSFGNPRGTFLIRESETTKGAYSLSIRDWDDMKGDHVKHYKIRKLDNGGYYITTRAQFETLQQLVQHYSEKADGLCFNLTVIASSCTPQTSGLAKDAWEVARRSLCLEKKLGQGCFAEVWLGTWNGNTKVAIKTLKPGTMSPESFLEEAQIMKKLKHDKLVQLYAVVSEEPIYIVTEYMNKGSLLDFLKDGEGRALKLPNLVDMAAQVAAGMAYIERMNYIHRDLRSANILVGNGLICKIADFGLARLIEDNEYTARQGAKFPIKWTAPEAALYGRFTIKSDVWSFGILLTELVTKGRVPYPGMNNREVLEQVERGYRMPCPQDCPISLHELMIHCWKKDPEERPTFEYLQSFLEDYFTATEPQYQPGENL
Description: In Vitro Kinase Inhibition Assay. Conditions: for IC50: Table 3, wild type. Details: in vitro inhibition of Fyn: dose or concentration left out as unconfirmed. The format is biochemical.

Assay [5] deals with T2, I338G v-Src (Rous sarcoma virus subgroup A, UniProt P00524, DEL77-225/I338G).
T2 construct: screened against the catalytic domain of the target kinase, I338G v-Src; made in house; host or cells: E. coli DH5a, pGEX-KT
In words: biochemical. The class given is biochemical.

For assay [6], the target named is T3, WT v-Src (Rous sarcoma virus subgroup A, UniProt P00524, DEL77-225).
T3 construct: mutant of the v-Src catalytic domain, (the XD4 fragment) were made as glutathione S-transferase (GST) fusion proteins; made in house; host or cells: E. coli (DH5a), pGEX-KT
In words: biochemical. Further details: in vitro inhibition of WT v-Src: dose or concentration left out as unconfirmed. The format is biochemical.

Broadly, the IC50 is the point on the concentration scale where inhibition reaches its midpoint.

As for `CCONc1ncnc2c1ncn2[C@@H]1O[C@H](COP(=O)(O)OP(=O)(O)OP(=O)(O)O)[C@@H](O)[C@H]1O` [ATP analog 2, N^6(ethoxy)ATP], the “ability to serve as cellular protein tyrosine kinase substrate (level of protein tyrosine phosphorylation)” value (“ability to serve” for short) in assay [1] is listed as “some ability to serve as cellular protein tyrosine kinase substrates”.

Turning to `CONc1ncnc2c1ncn2[C@@H]1O[C@H](COP(=O)(O)OP(=O)(O)OP(=O)(O)O)[C@@H](O)[C@H]1O` [ATP analog 1, N^6(methoxy)ATP], the “ability to serve” value in assay [1] was “some ability to serve as cellular protein tyrosine kinase substrates”.

As to `O=P(O)(O)OP(=O)(O)OP(=O)(O)OC[C@H]1O[C@@H](n2cnc3c(NOC4CCCC4)ncnc32)[C@H](O)[C@@H]1O` [ATP analog 9, N^6(cyclopentyloxy)ATP], the “inhibition of GST-XD4(V323A, I338A) catalyzed RR-Src phosphorylation” value in assay [2] was “almost as well as the wild-type kinase, GST-XD4, is inhibited by its natural substrate ATP”.

In the case of `CC(C)(C)n1nc(-c2ccccc2)c2c(N)ncnc21` [2 (FIG. 14), 4-Amino-1-tert-butyl-3-phenylpyrazolo[3,4-d] pyrimidine, reference compound], the “phosphotyrosine pattern of B cell stimulation” value in assay [3] is “significant reduction in tyrosine phosphorylation”. In addition, in assay [4], the “inhibition of WT Fyn (in words)” value is recorded as “highly potent (low nM)”.

For the compound `O=P(O)(O)OP(=O)(O)OP(=O)(O)OC[C@H]1O[C@@H](n2cnc3c(NCc4ccccc4)ncnc32)[C@H](O)[C@@H]1O` [ATP analog 5, N^6-(benzyl)ATP], the “inhibition of GST-XD4(V323A, I338A) catalyzed RR-Src phosphorylation” value in assay [2] was “almost as well as the wild-type kinase, GST-XD4, is inhibited by its natural substrate ATP”. Moreover, in assay [1], the “ability to serve” value is reported as “little or no protein phosphorylation”.

In the case of `CC(C)(C)c1ccc(-c2nn(C(C)(C)C)c3ncnc(N)c23)cc1` [Compound 6g, 4-amino-1-(tert-butyl)-3-(p-tert-butylphenyl)pyrazolo[3,4 d]pyrimidine], the IC50 in assay [5] was 99 nM; in assay [6] it was 65000 nM; in assay [4] it was 9200 nM.

Regarding `OCC1OC(n2cnc3c(NOC4CCCC4)ncnc32)C(O)C1O` (stereo not drawn) [1 (FIG. 14A), N-6 cyclopentyloxyadenosine], the “in vitro inhibition of WT v-Src” value in assay [6] is reported as “no detectable in vitro inhibition”. For the same compound, in assay [4], the “in vitro inhibition of Fyn” value is recorded as “no detectable in vitro inhibition”.

As for `O=P(O)(O)OP(=O)(O)OP(=O)(O)OC[C@H]1O[C@@H](n2cnc3c(NOCc4ccccc4)ncnc32)[C@H](O)[C@@H]1O` [ATP analog 6, N^6-(benxyloxy)ATP], in assay [1], the “ability to serve” value is “little or no protein phosphorylation”.

For `Cc1ccc(-c2nn(C(C)(C)C)c3ncnc(N)c23)cc1` [PP1, 4-amino-1-tert-butyl-3-(p-methylphenyl)pyrazolo[3,4-d]pyrimidine, reference compound], the “inhibition of WT Fyn (in words)” value in assay [4] was “highly potent (low nM)”.

In turn, `CC(C)(C)n1nc(-c2ccc3ccccc3c2)c2c(N)ncnc21` [Compound 6b, 4-amino-1-(tert-butyl)-3-(2′-naphthyl)pyrazolo[3,4-d]pyrimidine] yielded an IC50 in assay [4] of 130 nM.

Turning to `CC(C)(C)n1nc(-c2ccccc2)c2c(NCC3CCCC3)ncnc21` [Compound 4b, 4-cyclopentylmethylamino-1-tert-butyl-3-phenylpyrazolo[3,4-d]pyrimidine], the “inhibition of I338G v-Src (in words)” value in assay [5] was “only poor to moderate inhibition”. The “inhibition of WT Fyn (in words)” value in assay [4] is “sufficiently orthogonal to WT Fyn”.

Regarding `CC(C)(C)n1nc(-c2ccccc2)c2c(NCc3ccco3)ncnc21` [Compound 4d, 4-2′-furylmethylamino-1-tert-butyl-3-phenylpyrazolo[3,4-d]pyrimidine], the “inhibition of I338G v-Src (in words)” value in assay [5] is “only poor to moderate inhibition”. Besides, the “inhibition of WT Fyn (in words)” value in assay [4] is listed as “sufficiently orthogonal to WT Fyn”.

As for `CC(C)(C)n1nc(-c2ccccc2)c2c(NCc3ccccc3)ncnc21` [Compound 4e, 4-benzylamino-1-tert-butyl-3-phenylpyrazolo[3,4-d]pyrimidine], in assay [5], the “inhibition of I338G v-Src (in words)” value is on record as “only poor to moderate inhibition”. Further, in assay [4], the “inhibition of WT Fyn (in words)” value is recorded as “sufficiently orthogonal to WT Fyn”.

Regarding `CC(C)(C)n1nc(-c2cccc(OCc3ccccc3)c2)c2c(N)ncnc21` [Compound 6d, 4-amino-1-(tert-butyl)-3-(m-benzyloxyphenyl)pyrazolo[3,4-d]pyrimidine], the IC50 in assay [5] worked out at 7 nM; in assay [6] it was 26000 nM; in assay [4] it was 6000 nM. Moreover, the “inhibition of I338G v-Src (in words)” value in assay [5] is listed as “low nM concentrations”.

On to `CC(C)ONc1ncnc2c1ncn2[C@@H]1O[C@H](COP(=O)(O)OP(=O)(O)OP(=O)(O)O)[C@@H](O)[C@H]1O` [ATP analog 4, N^6(i-propoxy)ATP], for which, in assay [1], the “ability to serve” value is recorded as “little or no protein phosphorylation”.

Consider `CC(C)(C)n1nc(-c2cccc(Oc3ccccc3)c2)c2c(N)ncnc21` [Compound 6c, 4-amino-1-(tert-butyl)-3-(m-phenoxyphenyl)pyrazolo[3,4-d]pyrimidine], for which the figures for the IC50 in assay [5], in assay [6] and in assay [4] were 140 nM, 40000 nM and 800 nM, respectively.

Regarding `CC(C)(C)n1nc(-c2cccc(OCc3c(Cl)cccc3Cl)c2)c2c(N)ncnc21` [Compound 6e, 4-amino-1-(tert-butyl)-3-(m-(2′,6′-dichloro)benzyloxyphenyl) pyrazolo[3,4-d]pyrimidine], the values for the IC50 in assay [5] and in assay [4] were 130 nM and 84000 nM, respectively.

Consider `CC(C)(C)n1nc(Cc2ccc3ccccc3c2)c2c(N)ncnc21` [Compound 6j, 4-amino-1-(tert-butyl)-3-(2′-naphthylmethyl)pyrazolo[3,4-d]pyrimidine], for which the IC50 is 20 nM in assay [5] and greater than 300000 nM in assay [6]. Besides, the “inhibition of I338G v-Src (in words)” value in assay [5] is “medium potency”.

Consider `CC(=O)Nc1ncnc2c1ncn2[C@@H]1O[C@H](COP(=O)(O)OP(=O)(O)OP(=O)(O)O)[C@@H](O)[C@H]1O` [ATP analog 3, N^6(acetyl)ATP], for which the “ability to serve” value in assay [1] was “some ability to serve as cellular protein tyrosine kinase substrates”.

Consider `O=P(O)(O)OP(=O)(O)OP(=O)(O)OC[C@H]1O[C@@H](n2cnc3c(NC4CCCCC4)ncnc32)[C@H](O)[C@@H]1O` [ATP analog 11, N^6-(cyclohexyl)ATP], for which the “inhibition of GST-XD4(V323A, I338A) catalyzed RR-Src phosphorylation” value in assay [2] is reported as “almost as well as the wild-type kinase, GST-XD4, is inhibited by its natural substrate ATP”.

The record behind these values is patent US20030073218A1, “High affinity inhibitors for target validation and uses thereof” (Princeton University, priority 1999, published 2003).
